The target in the assay is T1, human GPR119 (Homo sapiens, UniProt Q8TDV5).
T1 construct: expression vector for human GPR119 cDNA (Acc. No. NP_848566); expressed in transfected cells
T1 sequence (Q8TDV5 1-335): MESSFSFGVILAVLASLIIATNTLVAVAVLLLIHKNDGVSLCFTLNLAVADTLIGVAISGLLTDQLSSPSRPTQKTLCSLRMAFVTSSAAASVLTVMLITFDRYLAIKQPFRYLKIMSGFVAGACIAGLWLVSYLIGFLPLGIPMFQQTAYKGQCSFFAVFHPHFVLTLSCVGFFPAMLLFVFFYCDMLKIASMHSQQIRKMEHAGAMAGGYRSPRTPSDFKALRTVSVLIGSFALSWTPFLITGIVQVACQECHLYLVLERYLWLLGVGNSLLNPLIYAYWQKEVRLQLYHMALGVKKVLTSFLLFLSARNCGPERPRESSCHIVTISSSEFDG
Description: AlphaScreen cAMP assay in MIN6 cells stably transfected with human GPR119. Conditions: Min-6/hGPR119 cells, stimulation of intracellular cAMP, 45 minutes incubation at room temperature. Type of assay: cell-based. The procedure: The compounds of formula I according to the invention modulate the activity of the G-protein-coupled receptor GPR119. The effect of the compounds on the activation of GPR119 and on the stimulation of intracellular cAMP concentration is determined using the AlphaScreen cAMP Assay Kit (Cat. No. #6760625R) made by PerkinElmer.
MIN6 cells [Miyazaki J et al. Endocrinology. 1990 July; 127(1):126-32] are stably transfected with an expression vector for human GPR119 cDNA (Acc. No. NP_848566). Min-6/hGPR119 cells are cultured in DMEM, 10% FBS, 50 μM β-mercaptoethanol, 0.3 mg/mL Geniticin, 2 mM GlutaMAX at 37° C. 5% CO2. For the assay, the cells are seeded in Optiplates (white, 384-well, 160W-barcoded, TC, sterile with lid, Cat. No. #6007688 (Perkin Elmer); 10000 cells/well; 50 μl). The plates covered with lids are then incubated for 24 hours at 37° C./5% CO2. After the medium is aspirated from the wells completely, 10 μl of the test compound are added, the compounds are diluted using stimulating buffer (140 mM NaCl, 3.6 mM KCl, 0.5 mM NaH2PO4, 0.5 mM MgSO4, 1.5 mM CaCl2, 10 mM Hepes, 5 mM NaHCO3; pH 7.4. 0.5 mM IBMX and 0.1% BSA, the final DMSO concentration is 1%). After 45 minutes incubation at room temperature (approx. 20° C.), the cAMP concentrations are determined using the AlphaScreen cAMP Assay Kit (Cat. No. #6760625R from PerkinElmer).
On the technique in general: Alpha assays give light when donor and acceptor beads are brought close together.
`CS(=O)(=O)N1CC=C(c2cc3c(cn2)O[C@H](C2CCN(CC4(C(F)(F)F)CC4)CC2)C3)CC1` [Example 15, (S)-5-(1-Methanesulfonyl-1,2,3,6-tetrahydro-pyridin-4-yl)-2-{1-[(1-trifluoromethyl-cyclopropyl)methyl]-piperidin-4-yl}-2,3-dihydro-furo[2,3-c]pyridine]: the midpoint of the response, the EC50, lay at 78 nM. This lies in the double-digit nanomolar range.

In the case of `CC(C)(F)CN1CCC([C@@]2(C)Cc3cc(C4=CCN(S(C)(=O)=O)CC4)ncc3O2)CC1` [Example 16, (R)-2-[1-(2-Fluoro-2-methyl-propyl)-piperidin-4-yl]-5-(1-methanesulfonyl-1,2,3,6-tetrahydro-pyridin-4-yl)-2-methyl-2,3-dihydro-furo[2,3-c]pyridine], the response was half-maximal at 25 nM (EC50).

`CC(C)(F)CN1CCC([C@@H]2Cc3cc(C4=CCN(S(C)(=O)=O)CC4)ncc3O2)CC1` [Example 11, (S)-2-[1-(2-Fluoro-2-methyl-propyl)-piperidin-4-yl]-5-(1-methanesulfonyl-1,2,3,6-tetrahydro-pyridin-4-yl)-2,3-dihydro-furo[2,3-c]pyridine] displayed an EC50 of 848 nM.

For `C[C@]1(C2CCN(CC3(C(F)(F)F)CC3)CC2)Cc2cc(-c3ccc(S(C)(=O)=O)cc3)ncc2O1` [Example 18], the EC50 came out at 27 nM.

On to `CS(=O)(=O)Cc1ccc(-c2cc3c(cn2)OC(C2CCN(CC4(C(F)(F)F)CC4)CC2)C3)cc1` (centres unmarked) [Example 8, 5-(4-Methanesulfonylmethyl-phenyl)-2-{1-[(1-trifluoromethyl-cyclopropyl)methyl]-piperidin-4-yl}-2,3-dihydrofuro[2,3-c]pyridine], for which the midpoint of the response, the EC50, lay at 35 nM.

`CS(=O)(=O)N1CC=C(c2cc3c(cn2)O[C@@H](C2CCN(CC4(C(F)(F)F)CC4)CC2)C3)CC1` [Example 14, (R)-5-(1-Methanesulfonyl-1,2,3,6-tetrahydro-pyridin-4-yl)-2-{1-[(1-trifluoromethyl-cyclopropyl)methyl]-piperidin-4-yl}-2,3-dihydro-furo[2,3-c]pyridine] returned an EC50 of 2 nM.

`CS(=O)(=O)Cc1ccc(-c2cc3c(cn2)OC(C2CCN(CC4(C(F)(F)F)CC4)CC2)C3)c(F)c1` (centres unmarked) [Example 7, 5-(2-Fluoro-4-methanesulfonylmethyl-phenyl)-2-{1-[(1-trifluoromethyl-cyclopropyl)methyl]-piperidin-4-yl}-2,3-dihydrofuro[2,3-c]pyridine]: a half-maximal response (EC50) required 22 nM. This EC50 lies about 11-fold higher than the previous one.

With `CC(C)(F)CN1CCC([C@H]2Cc3cc(C4=CCN(S(C)(=O)=O)CC4)ncc3O2)CC1` [Example 12, (R)-2-[1-(2-Fluoro-2-methyl-propyl)-piperidin-4-yl]-5-(1-methanesulfonyl-1,2,3,6-tetrahydro-pyridin-4-yl)-2,3-dihydro-furo[2,3-c]pyridine], the EC50 was found to be 46 nM. This EC50 lies about 2.1-fold higher than the previous one.

As for `CC(C)(F)CN1CCC(C2Cc3cc(-c4ccc(S(C)(=O)=O)cc4)ccc3O2)CC1` (centres unmarked) [Example 1, 1-(2-Fluoro-2-methyl-propyl)-4-[5-(4-methanesulfonyl-phenyl)-2,3-dihydro-benzofuran-2-yl]-piperidine], the EC50 amounted to 417 nM.

In the case of `CC(C)(F)CN1CCC(C2Cc3cc(C4CCN(S(C)(=O)=O)CC4)ncc3O2)CC1` (centres unmarked) [Example 5, 2-[1-(2-Fluoro-2-methyl-propyl)-piperidin-4-yl]-5-(1-methanesulfonyl-piperidin-4-yl)-2,3-dihydro-furo[2,3-c]pyridine], the EC50 worked out at 663 nM. This EC50 lies about 1.6-fold higher than the previous one.

`CC(C)(F)CN1CCC([C@@]2(C)Cc3cc(-c4ccc(S(C)(=O)=O)cc4)ncc3O2)CC1` [Example 10, (R)-2-[1-(2-Fluoro-2-methyl-propyl)-piperidin-4-yl]-5-(4-methanesulfonyl-phenyl)-2-methyl-2,3-dihydro-furo[2,3-c]pyridine] showed an EC50 of 66 nM.

In the case of `CC(C)(F)CN1CCC(C2Cc3cc(C4=CCN(S(C)(=O)=O)CC4)ncc3O2)CC1` (centres unmarked) [Example 3, 2-[1-(2-Fluoro-2-methyl-propyl)-piperidin-4-yl]-5-(1-methanesulfonyl-1,2,3,6-tetrahydro-pyridin-4-yl)-2,3-dihydro-furo[2,3-c]pyridine], the EC50 turned out to be 36 nM.

Take `CC(C)(F)CN1CCC(C2Cc3cc(-c4ccc(CS(C)(=O)=O)cc4)ncc3O2)CC1` (centres unmarked) [Example 4, 2-[1-(2-Fluoro-2-methyl-propyl)-piperidin-4-yl]-5-(4-methanesulfonylmethyl-phenyl)-2,3-dihydro-furo[2,3-c]pyridine]: the 50% effective concentration (EC50) came out at 215 nM.

In the case of `CS(=O)(=O)N1CC=C(c2cc3c(cn2)OC(C2CCN(CC4(C(F)(F)F)CC4)CC2)C3)CC1` (racemic) [Example 6, 5-(1-Methanesulfonyl-1,2,3,6-tetrahydro-pyridin-4-yl)-2-{1-[(1-trifluoromethyl-cyclopropyl)methyl]-piperidin-4-yl}-2,3-dihydro-furo[2,3-c]pyridine], a half-maximal effect (EC50) was put at 21 nM. This EC50 lies about 10-fold lower than the previous one.

Turning to `CC(C)(F)CN1CCC(C2Cc3cc(-c4ccc(CS(C)(=O)=O)cc4F)ncc3O2)CC1` (centres unmarked) [Example 9, 5-(2-Fluoro-4-methanesulfonylmethyl-phenyl)-2-[1-(2-fluoro-2-methyl-propyl)-piperidin-4-yl]-2,3-dihydro-furo[2,3-c]pyridine], a half-maximal effect (EC50) was put at 100 nM.

On to `CC(C)(F)CN1CCC([C@H]2Cc3cc(-c4ccc(S(C)(=O)=O)cc4)ncc3O2)CC1` [Example 19, (R)-2-[1-(2-Fluoro-2-methyl-propyl)-piperidin-4-yl]-5-(4-methanesulfonyl-phenyl)-2,3-dihydro-furo[2,3-c]pyridine], for which the EC50 was determined as 84 nM.

Compound `C[C@]1(C2CCN(CC3(C(F)(F)F)CC3)CC2)Cc2cc(C3=CCN(S(C)(=O)=O)CC3)ncc2O1` [Example 13, (R)-5-(1-Methanesulfonyl-1,2,3,6-tetrahydro-pyridin-4-yl)-2-methyl-2-{1-[(1-trifluoromethyl-cyclopropyl)methyl]-piperidin-4-yl}-2,3-dihydro-furo[2,3-c]pyridine] came in with a half-maximal effective concentration (EC50) of 5 nM.

Broadly, the EC50 is the midpoint of the concentration-response curve.

(Values after US8853239B2, “Compounds, pharmaceutical compositions and uses thereof” (Boehringer Ingelheim International GmbH, priority 2011, dated 2014).)
